According to patent US20240336565A1, “SOLID FORMS OF OSANETANT” (Acer Therapeutics, Inc., priority 2021, published 2024):

How the values were obtained:
Format in all cases: physicochemical
[1] = Long term stability: thermal stability of solids at 60° C.; details: solids, darkened oven at 60° C., up to 14 days
Summary of the method: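 Solid tosylate and besylate Form 1 salts were held in glass vials in a dark oven at 60° C. Purity was sampled at 1, 2, 4, 7 and 14 days.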

[2] = Long term stability: acid stability (2M HCl) at ambient temperature; details: 2M HCl, dark, ambient, up to 14 days
Summary of the method: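 Osanetant tosylate and besylate Form 1, at 10× normal working concentration, stored in 2M HCl in the dark at ambient conditions. Sampled at 1, 2, 4, 7 and 14 days, diluted to 2 mg/mL, purity determined by HPLC.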

[3] = Long term stability: oxidation (6% H2O2) at ambient temperature; details: 6% H2O2, dark, ambient, up to 14 days
Summary of the method: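 Tosylate and besylate salt Form 1 prepared at 10 times the normal working osanetant concentration in 6% H2O2, stored in the dark at ambient conditions. Sampled at 1, 2, 4, 7 and 14 days, diluted to 2 mg/mL and assessed for purity.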

Measured: degradation on storage (purity)

CC(=O)N(C)C1(c2ccccc2)CCN(CCC[C@]2(c3ccc(Cl)c(Cl)c3)CCCN(C(=O)c3ccccc3)C2)CC1.Cc1ccc(S(=O)(=O)O)cc1 [osanetant p-toluenesulfonic acid Form 1, (R)-N-(1-(3-(1-benzoyl-3-(3,4-dichlorophenyl)piperidin-3-yl)propyl)-4-phenylpiperidin-4-yl)-N-methylacetamide p-toluenesulfonic acid]
lack of degradation: all assays above
